For this experiment, the system named is P388 leukemia ip, CD2F1 mice, survival T/C. Briefly: NCI In Vivo Anticancer Drug Screen. Data for tumor model P388 Leukemia (intraperitoneal) in CD2F1 (CDF1) mice. The conditions noted are these: endpoint: median survival time, higher = longer survival. The method, boiled down: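 Mice carrying the transplanted tumor received test compound or vehicle. Survival was recorded in each group, and the value is the treated-group measurement divided by that of the vehicle-treated control group.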

Where [1] appears, read: dose: 50.0 mg/kg/injection, schedule: Q01DX009 (ip), vehicle: Klucel (hydroxypropylcellulose) (HPC).
The mark [2] stands for this setting: dose: 100.0 mg/kg/injection, schedule: Q01DX009 (ip), vehicle: Klucel (hydroxypropylcellulose) (HPC).
[3] abbreviates: dose: 60.0 mg/kg/injection, schedule: Q01DX005 (ip), vehicle: saline with Tween-80.
Setting [4] is: dose: 120.0 mg/kg/injection, schedule: Q01DX005 (ip), vehicle: saline with Tween-80.
The mark [5] stands for this setting: dose: 240.0 mg/kg/injection, schedule: Q01DX005 (ip), vehicle: saline with Tween-80.

Toxic doses and inconclusive results are not listed.

On to `COc1ccc(CC2C(=O)NC(C)C(=O)N(C)C3C(=O)N(C)C(Cc4ccc(O)c(c4)Oc4ccc(cc4)C3O)C(=O)NC(C)C(=O)NC(C)C(=O)N2C)cc1` (stereo not given), for which the T/C was 94 % of control (dose: 0.03 mg/kg/injection, schedule: Q01DX009 (ip), vehicle: Klucel (hydroxypropylcellulose) (HPC)); 100 % of control (dose: 0.03 mg/kg/injection, schedule: Q01DX009 (ip), vehicle: saline + alcohol); 123 % of control (dose: 0.03 mg/kg/injection, schedule: Q03HX024 (ip), vehicle: saline + alcohol); 102 % of control (dose: 0.06 mg/kg/injection, schedule: Q01DX009 (ip), vehicle: Klucel (hydroxypropylcellulose) (HPC)); 106 % of control (dose: 0.06 mg/kg/injection, schedule: Q01DX009 (ip), vehicle: saline + alcohol); 118 % of control (dose: 0.06 mg/kg/injection, schedule: Q03HX008 (ip), vehicle: saline + alcohol). Also, the T/C is 122 % of control (dose: 0.06 mg/kg/injection, schedule: Q03HX016 (ip), vehicle: saline + alcohol); 104 % of control (dose: 0.12 mg/kg/injection, schedule: Q01DX009 (ip), vehicle: Klucel (hydroxypropylcellulose) (HPC)); 111 % of control (dose: 0.12 mg/kg/injection, schedule: Q01DX009 (ip), vehicle: saline + alcohol); 103 % of control (dose: 0.13 mg/kg/injection, schedule: Q03HX024 (ip), vehicle: other); 153 % of control (dose: 0.13 mg/kg/injection, schedule: Q03HX024 (ip), vehicle: saline + alcohol); 116 % of control (dose: 0.25 mg/kg/injection, schedule: Q01DX005 (ip), vehicle: saline). In addition, the T/C runs as follows: (dose: 0.25 mg/kg/injection, schedule: Q01DX005 (iv), vehicle: other) 100 % of control; (dose: 0.25 mg/kg/injection, schedule: Q01DX005 (iv), vehicle: saline) 107 % of control; (dose: 0.25 mg/kg/injection, schedule: Q01DX009 (ip), vehicle: Klucel (hydroxypropylcellulose) (HPC)) 113 % of control; (dose: 0.25 mg/kg/injection, schedule: Q01DX009 (sc), vehicle: other) 95 % of control; (dose: 0.25 mg/kg/injection, schedule: Q03HX008 (ip), vehicle: other) 120 % of control; (dose: 0.25 mg/kg/injection, schedule: Q03HX016 (ip), vehicle: other) 100 % of control. Further, the T/C (dose: 0.25 mg/kg/injection, schedule: Q03HX024 (ip), vehicle: other) is 91 % of control; the T/C (dose: 0.25 mg/kg/injection, schedule: Q03HX024 (ip), vehicle: saline + alcohol) is 157 % of control; the T/C (dose: 0.5 mg/kg/injection, schedule: Q01DX005 (iv), vehicle: other) was 98 % of control; the T/C (dose: 0.5 mg/kg/injection, schedule: Q01DX005 (iv), vehicle: saline) was 114 % of control; the T/C (dose: 0.5 mg/kg/injection, schedule: Q01DX009 (ip), vehicle: clinical formulation) was 157 % of control; the T/C (dose: 0.5 mg/kg/injection, schedule: Q01DX009 (ip), vehicle: water) is 154 % of control. The T/C was 98 % of control (dose: 0.5 mg/kg/injection, schedule: Q01DX009 (oral), vehicle: other); 99 % of control (dose: 0.5 mg/kg/injection, schedule: Q01DX009 (sc), vehicle: other); 150 % of control (dose: 0.5 mg/kg/injection, schedule: Q03HX016 (ip), vehicle: saline + alcohol); 172 % of control (dose: 0.5 mg/kg/injection, schedule: Q03HX024 (ip), vehicle: saline + alcohol); 122 % of control (dose: 1.0 mg/kg/injection, schedule: Q01DX001 (ip), vehicle: other); 103 % of control (dose: 1.0 mg/kg/injection, schedule: Q01DX001 (oral), vehicle: other). Besides, the T/C by setting is: (dose: 1.0 mg/kg/injection, schedule: Q01DX005 (ip), vehicle: saline) 158 % of control; (dose: 1.0 mg/kg/injection, schedule: Q01DX005 (iv), vehicle: other) 99 % of control; (dose: 1.0 mg/kg/injection, schedule: Q01DX009 (ip), vehicle: Klucel (hydroxypropylcellulose) (HPC)) 113 % of control; (dose: 1.0 mg/kg/injection, schedule: Q01DX009 (ip), vehicle: clinical formulation) 198 % of control; (dose: 1.0 mg/kg/injection, schedule: Q01DX009 (ip), vehicle: other) 167 % of control; (dose: 1.0 mg/kg/injection, schedule: Q01DX009 (ip), vehicle: saline + alcohol) 172 % of control. For the same compound, the T/C was 166 % of control (dose: 1.0 mg/kg/injection, schedule: Q01DX009 (ip), vehicle: water); 95 % of control (dose: 1.0 mg/kg/injection, schedule: Q01DX009 (oral), vehicle: other); 95 % of control (dose: 1.0 mg/kg/injection, schedule: Q01DX009 (sc), vehicle: other); 97 % of control (dose: 2.0 mg/kg/injection, schedule: Q01DX001 (oral), vehicle: other); 167 % of control (dose: 2.0 mg/kg/injection, schedule: Q01DX005 (ip), vehicle: other); 166 % of control (dose: 2.0 mg/kg/injection, schedule: Q01DX005 (ip), vehicle: saline). Also, the T/C (dose: 2.0 mg/kg/injection, schedule: Q01DX009 (ip), vehicle: clinical formulation) is 195 % of control; the T/C (dose: 2.0 mg/kg/injection, schedule: Q01DX009 (ip), vehicle: other) is 183 % of control; the T/C (dose: 2.0 mg/kg/injection, schedule: Q01DX009 (ip), vehicle: saline + alcohol) is 184 % of control; the T/C (dose: 2.0 mg/kg/injection, schedule: Q01DX009 (ip), vehicle: water) is 184 % of control; the T/C (dose: 2.0 mg/kg/injection, schedule: Q01DX009 (oral), vehicle: other) was 122 % of control; the T/C (dose: 2.0 mg/kg/injection, schedule: Q04DX003 (ip), vehicle: other) is 155 % of control. The T/C is 100 % of control (dose: 4.0 mg/kg/injection, schedule: Q01DX001 (oral), vehicle: other); 165 % of control (dose: 4.0 mg/kg/injection, schedule: Q01DX005 (ip), vehicle: other); 116 % of control (dose: 4.0 mg/kg/injection, schedule: Q01DX009 (ip), vehicle: Klucel (hydroxypropylcellulose) (HPC)); 94 % of control (dose: 4.0 mg/kg/injection, schedule: Q01DX009 (ip), vehicle: other); 103 % of control (dose: 4.0 mg/kg/injection, schedule: Q01DX009 (ip), vehicle: saline + alcohol); 122 % of control (dose: 4.0 mg/kg/injection, schedule: Q01DX009 (oral), vehicle: other). In addition, the T/C (dose: 4.0 mg/kg/injection, schedule: Q04DX003 (ip), vehicle: other) is 155 % of control; the T/C (dose: 4.0 mg/kg/injection, schedule: Q08DX002 (ip), vehicle: other) was 152 % of control; the T/C (dose: 8.0 mg/kg/injection, schedule: Q01DX001 (oral), vehicle: other) was 104 % of control; the T/C (dose: 8.0 mg/kg/injection, schedule: Q01DX009 (oral), vehicle: other) is 92 % of control; the T/C (dose: 8.0 mg/kg/injection, schedule: Q04DX003 (ip), vehicle: other) was 163 % of control; the T/C (dose: 16.0 mg/kg/injection, schedule: Q01DX001 (oral), vehicle: other) was 95 % of control. Also, the T/C was 150 % of control (dose: 500.0 micrograms/kg/injection, schedule: Q01DX009 (ip), vehicle: saline with Tween-80); 177 % of control (dose: 1000.0 micrograms/kg/injection, schedule: Q01DX009 (ip), vehicle: saline with Tween-80); 152 % of control (dose: 2000.0 micrograms/kg/injection, schedule: Q01DX009 (ip), vehicle: saline with Tween-80).

With `COn1nnc2ccc(Cl)cc21`, the T/C reads like this: under setting [1], 99 % of control; under setting [2], 100 % of control; (dose: 200.0 mg/kg/injection, schedule: Q01DX009 (ip), vehicle: Klucel (hydroxypropylcellulose) (HPC)) 100 % of control.

Turning to `CCCCCCC(=O)CC(SCCO)c1ccccc1Cl` (stereo not given), the T/C is, setting by setting: under setting [3], 92 % of control; under setting [4], 107 % of control; under setting [5], 114 % of control.

`c1cc[c]([Ge]([c]2ccccc2)[c]2ccccc2)cc1`: the T/C by setting is: under setting [3], 91 % of control; under setting [4], 100 % of control; under setting [5], 97 % of control.

With `CCn1c(=O)c2[nH]c(I)nc2n(CC)c1=O`, the T/C is 99 % of control (dose: 25.0 mg/kg/injection, schedule: Q01DX009 (ip), vehicle: Klucel (hydroxypropylcellulose) (HPC)); 99 % of control under setting [1]; 106 % of control under setting [2].

The values are drawn from PubChem BioAssay AID330 (DTP/NCI, 2004).
